Patent US4902699A, “Oxime of 1, 2, 5, 6-tetrahydropyridine compounds their use as medicaments and the compositions containing them” (Roussel Uclaf, priority 1987, dated 1990)
Where a name gives a salt, the structure may show the parent alone. Read-outs that look alike come from different tables or passages of the source.

Tests used:
[1] = Acute toxicity, oral; parameters: species or system mice; settings: mouse, in vivo, mortality during 7 days
Method: The test was carried out on male mice (CD1 Charles Rivers), of 22 to 24 g, having fasted for 16 hours. […] The mortality is noted during the 7 days following the treatment.

[2] = test system: ileum isolated from guinea-pig; assay: Test of ileum isolated from guinea-pig, agonist (contracting) activity; settings: Cavia porcellus; negative logarithm of the dose which produces 50% of the maximum effect; read-out: pD2 (converted)
Method: Pieces of ileum are removed from guinea-pigs killed by decapitation. The isolated ileum is placed in 10 cm^3 of Tyrode solution at 37° C. and aerated with a mixture of oxygen (95%) and carbon dioxide gas (5%). The contractions due to the products are registered by means of a detector connected to a polygraph. The products to be tested are added at concentrations between 1.10^-3 M and 1.10^-8 M/l.
The products presenting a contracting effect are tested vis-a-vis atropine and hexamethonium in order to establish if the activity is of "muscarine" or "nicotine" type.
The agonist activity is expressed in pD2 (negative logarithm of the dose which produces 50% of the maximum effect).

[3] = Diarrhoeic activity; parameters: species or system mice; settings: mouse, in vivo; oral route; dose which causes diarrhoea in 50% of the animals; read-out: DE50 (the source's name)
Method: The test is carried out on male mice (CD1 Charles Rivers) weighing […], after fasting for 6 hours. The product dissolved at 5% in methocel is administered by oral route by means of an oesophage probe.
Control animals receive only the excipient.
After treatment, the animals are placed separately in cages of which the base is covered with blotting paper, and they are put under observation for 30, 60, 120 and 180 minutes.
The sheets of absorbent paper are changed after each observation.
The consistency of the feces is evaluated according to the method of Randall and Baruth (Arch. Int. Pharmacodyn. 220, 94, 1976) according to the following scale of values.
1: feces slightly soft, with or without a damp halo
2: feces slightly soft, with a well defined circle of humidity.
3: feces soft with a large circle of humidity.
4: feces without consistency with a very large circle of humidity.
For each product, the dose is noted which causes diarrhoea in 50% of the animals according to the method of Miller and Tainter (Proc. Soc. Exp. Biol. Med., 57, 261, 1944).

[4] = test system: male mice (CD1 Charles RAivers); assay: Hypothermic activity; assay type: in vivo; settings: Mus musculus, read-out: Effective dose (-1° C.)
Method: (§1) The test is carried out on male mice (CD1 Charles RAivers) weighing 25-30 g, having fasted for 6 hours.
The temperature of the body is noted by means of a thermocouple inserted about 1.5 cm in the rectum and connected to an electric temperature recorder.
The products are administered by oral or sub-cutaneous route and the temperatures are noted at the instant 0 and at 30 minutes, 1 hour, 2 hours and 2 and a half hours after treatment.
The degree of hypothermia is evaluated as the difference between the treated animals and the controls, and the dose necessary to reduce the body temperature by 1° C. is noted.

[5] = test system: male mice (CD1 Charles RAivers); assay: Variation of the body temperature (duration of action); assay type: in vivo
Method: as §1
The temperature of the body is noted by means of a thermocouple inserted about 1.5 cm in the rectum and connected to an electric temperature recorder. […]
The duration of action of the products is determined, using the doses able to reduce the temperature by 1° to 1.5° C.

[6] = Solubility; assay type: physicochemical; settings: for Solubility in water: H2O
[7] = test system: central cholinergic system; settings: cited from earlier work
[8] = test system: patients having a memory defect; settings: injected by intravenous route; cited from earlier work

SMILES	LD50 at 168 h [1] [mg/kg]	EC50 [2] [µM]	ED50 [3] [mg/kg]	ED (-1 C) ([4]; O.R. (oral route)) [mg/kg]	ED (-1 C) ([4]; SC.R (sub-cutaneous route)) [mg/kg]	Solubility in 2N HCl [6]	Solubility in 2N NaOH [6]	Solubility in water [6]	other results
CON=CC1=CCCN(OC(C)=O)C1 [Example 3, Hydrochloride of the methyl ether of 1-acetoxy-1,2,5,6-tetrahydropyridin-3-carboxaldehyde oxime]	100	12.6	0.5	0.22	0.2	soluble	insoluble	insoluble	Variations of the body temperature ([5]; os, 0.25 mg/kg, 30 min): -1.2 °C; Variations of the body temperature ([5]; os, 0.25 mg/kg, 60 min): -0.7 °C; Variations of the body temperature ([5]; os, 0.25 mg/kg, 120 min): +0.1 °C; Variations of the body temperature ([5]; os, 0.25 mg/kg, 180 min): +0.1 °C; Variations of the body temperature ([5]; sc, 0.25 mg/kg, 30 min): -1.2 °C; Variations of the body temperature ([5]; sc, 0.25 mg/kg, 60 min): -0.8 °C; Variations of the body temperature ([5]; sc, 0.25 mg/kg, 120 min): +0.1 °C; Variations of the body temperature ([5]; sc, 0.25 mg/kg, 180 min): +0.1 °C
C#CCON=CC1=CCCN(O)C1 [Example 4, Hydrochloride of the propargyl ether of 1-hydroxy-1,2,5,6-tetrahydropyridin-3-carboxaldehyde oxime]	80	5.75	0.9	0.48	0.49	Soluble	Soluble	Soluble	Variations of the body temperature ([5]; os, 0.75 mg/kg, 30 min): -1.6 °C; Variations of the body temperature ([5]; os, 0.75 mg/kg, 60 min): -1.0 °C; Variations of the body temperature ([5]; os, 0.75 mg/kg, 180 min): -0.1 °C; Variations of the body temperature ([5]; sc, 0.75 mg/kg, 30 min): -1.4 °C; Variations of the body temperature ([5]; sc, 0.75 mg/kg, 60 min): -1.1 °C; Variations of the body temperature ([5]; sc, 0.75 mg/kg, 120 min): -0.1 °C
COC(=O)C1=CCCN(C)C1 [arecoline]		0.331	35						duration of action ([7]; in vivo): short duration of action; activity by oral route ([7]; oral route): very weak activity; effect on patients having a memory defect [8]: positive effect
